Source: publication PMC11303563 (Communications Medicine, 2024)
Several values for one entry are separate records, joined by “and”; a condition that tells them apart may be missing. Identical values can stand only once.

Columns and labels:
[1] = In vitro blood-brain barrier permeability assay (BBB kit RBT-24H); assay type: in vitro ADME, rat
Experimental: Therefore, we tested BBB transparency in vitro using the BBB kit RBT-24H (PharmaCo-Cell)[35]. […] Blood-brain barrier permeability assay The blood-brain barrier (BBB) transparency of TH analogs was assessed in vitro using RBT-24H (PharmaCo-Cell)[5] according to the manufacturer 's protocol. […] After 30 min, the assay buffer in the wells mimicking the abluminal side was collected, and the concentration of the compounds was measured using liquid chromatography-mass spectrometry (LC-MS). […] These tips were preconditioned with 20 μL of acetonitrile and 20 μL of 0.1% TFA in purified water. 100 μL of the samples were loaded onto the preconditioned tips, washed with 200 μL of DW, and then eluted with 10 μL of acetonitrile. Triazine (1% vol/vol) was added to the eluent as an internal standard. […] 3 μm; Imtakt, Kyoto, Japan). All the experiments were performed using an Ultimate 3000 UHPLC system coupled with a Q Exactive Plus Orbitrap mass spectrometer (Thermo Fisher Scientific). […] Data were shown as mean ± standard deviation (n=3).

THRβ = conditions: cited from earlier work
[2] = tested on: high-fat diet (HFD)-induced obesity model mice; assay: Weight of epididymal adipose tissue (visceral fat) in HFD mice; assay type: in vivo, C57BL/6J mice; conditions: for Fig. 3b (weight of epididymal adipose tissue), group mean (Mean 2): n=10; for Fig. 3b (weight of epididymal adipose tissue), group mean (Mean 2) / Fig. 3b (weight of epididymal adipose tissue), Mean Diff. ND vs. treatment (Tukey) / Fig. 3b (weight of epididymal adipose tissue), Mean Diff. Vehicle vs. treatment (Tukey) / Epididymal adipose weight, individual mice (Fig. 3b): in mg (unit assumed); for Fig. 3b (weight of epididymal adipose tissue), Mean Diff. ND vs. treatment (Tukey): ND minus treated; for Fig. 3b (weight of epididymal adipose tissue), Mean Diff. Vehicle vs. treatment (Tukey): Vehicle minus treated
Experimental: (§1) Epididymal adipose tissue was weighed.
(§2) Fig. 3 Effects of intraperitoneal injection of TH analogs on body weight and deposition of visceral fat. […] After three weeks of injection, body weight (a), and weight of the epididymal adipose tissue (b) were measured.

[3] = tested on: high-fat diet (HFD)-induced obesity model mice; assay: Serum lipid analysis (total cholesterol, triglycerides) in HFD mice; assay type: in vivo, C57BL/6J mice; parameters: Serum TC (Fig. 4a), individual mouse values / Serum TG (Fig. 4b), individual mouse values / Serum TC (Fig. 4a), Mean Diff. ND vs. treatment (Tukey) / Serum TC (Fig. 4a), Mean Diff. Vehicle vs. treatment (Tukey) / Serum TC (Fig. 4a), group mean (Mean 2) / Mean Diff., ND vs. treated (Fig. 4b) / Mean Diff., Vehicle vs. treated (Fig. 4b) / Mean (Fig. 4b): unit not given here; conditions: for Serum TC (Fig. 4a), group mean (Mean 2) / Mean (Fig. 4b): n=10; for Serum TC (Fig. 4a), Mean Diff. ND vs. treatment (Tukey): ND minus treated; for Serum TC (Fig. 4a), Mean Diff. Vehicle vs. treatment (Tukey): Vehicle minus treated; for Mean Diff., ND vs. treated (Fig. 4b) / Mean Diff., Vehicle vs. treated (Fig. 4b): Tukey's multiple comparisons test; for Mean (Fig. 4b): group mean
Experimental: Fig. 4 Effects of TH analogs on the accumulation of lipids in mice. […] After 3 weeks of injection, serum and liver tissues were collected, and the amount of serum cholesterol (a), serum triglycerides (b), liver cholesterol (c), liver triglycerides (d), and liver total lipids (e) were measured.

[4] = tested on: THR-regulated genes and lipid metabolism-related genes in the liver
[5] = tested on: high-fat diet (HFD)-induced obesity model mice; assay: Body weight of high-fat diet-induced obesity model mice; assay type: in vivo, C57BL/6J mice; parameters: Body weight, Mean Diff. ND vs. treated: unit not given here; conditions: for Body weight, 95.00% CI of diff. ND vs. treated / Body weight, Mean Diff. ND vs. treated: ND group as comparator; for Body weight, 95.00% CI of diff. ND vs. treated / Body weight, Mean Diff. ND vs. treated / Body weight, 95.00% CI of diff. Vehicle vs. treated / Body weight, Mean Diff. Vehicle vs. treated: Tukey's multiple comparisons test; for Body weight, Mean Diff. Vehicle vs. treated / Body weight, group mean (Fig. 3a) / Body weight, individual mice (Fig. 3a): in g (unit assumed); for Body weight, group mean (Fig. 3a): n 10
Experimental: The injection was given 6 h after light on. Food consumption and body weights were measured weekly. Food and water were provided to the animals ad libitum. The animals were treated according to the guidelines of Nagoya University, and all experimental procedures were approved by the Animal Experiment Committee of Nagoya University (A210715-003).
as §1, §2

[6] = HFD mice, i.p., dose not given (0.1 or 1 µmol/kg day), 3 weeks
[7] = HFD mice, 1 μmol/kg day, RT-qPCR, reference gene Rps18
[8] = liver gene expression, 1µmol dose group vs. Vehicle

## Cn1c(=O)c2c(ncn2C)n(C)c1=O [Caffeine]
[1]; 10 µM on luminal side, 30 min, mean ± standard deviation (n=3)
  Abluminal concentration: 0.504 ± 0.0551 µM
[1]; rat, 10 μM on luminal side, read-out: apparent permeability (Papp)
  Papp at 30 min, 10 µM: 76.4 ± 8.35 ×10⁻⁶ cm/s

## Cc1cc(OCC(=O)O)cc(C)c1Cc1ccc(O)c(Cc2ccccc2)c1 [GC-24]
THRβ
  selectivity for THRβ against THRα compared with GC-1: ten-fold greater selectivity

## N[C@@H](Cc1cc(I)c(Oc2ccc(O)c(I)c2)c(I)c1)C(=O)O [T3, triiodothyronine]
[2]; 0.1 µmol, HFD mice
  Fig. 3b (weight of epididymal adipose tissue), group mean (Mean 2): 1763
[2]; 0.1 µmol
  Fig. 3b (weight of epididymal adipose tissue), Mean Diff. ND vs. treatment (Tukey): -1079
  Fig. 3b (weight of epididymal adipose tissue), Mean Diff. Vehicle vs. treatment (Tukey): 1095
[2]; 1 µmol, HFD mice
  Fig. 3b (weight of epididymal adipose tissue), group mean (Mean 2): 1015
[2]; 1 µmol
  Fig. 3b (weight of epididymal adipose tissue), Mean Diff. ND vs. treatment (Tukey): -331.6
  Fig. 3b (weight of epididymal adipose tissue), Mean Diff. Vehicle vs. treatment (Tukey): 1843
[2]; HFD mice, 0.1 µmol dose group
  Epididymal adipose weight, individual mice (Fig. 3b): 1857.6 and 1829.3 and 1453.2 and 1516.6 and 740.6 and 1685.1 and 1862.2 and 1976.4 and 2365.6 and 2339.7
[2]; HFD mice, 1 µmol dose group
  Epididymal adipose weight, individual mice (Fig. 3b): 781.7 and 1090.4 and 983.4 and 966.1 and 975.7 and 1007.4 and 1167.4 and 1184.7 and 1023.2 and 969.5
[2]; [6]
  weight of the epididymal adipose tissue vs vehicle: decreased significantly
[3]; 0.1 µmol, HFD mice
  Serum TC (Fig. 4a), individual mouse values: 158.333 and 124.25 and 113.833 and 130.625 and 129.792 and 168.458 and 110 and 105.208 and 104.375 and 153.458
  Serum TG (Fig. 4b), individual mouse values: 79.667 and 70.5 and 70.583 and 116.333 and 98 and 97.167 and 90.5 and 123.833 and 87.167 and 118.833
  Serum TC (Fig. 4a), group mean (Mean 2): 129.8
  Mean (Fig. 4b): 95.26
[3]; 0.1 µmol
  Serum TC (Fig. 4a), Mean Diff. ND vs. treatment (Tukey): 49.59
  Serum TC (Fig. 4a), Mean Diff. Vehicle vs. treatment (Tukey): 120.2
[3]; 1 µmol, HFD mice
  Serum TC (Fig. 4a), individual mouse values: 78.333 and 92.5833 and 95.917 and 94.792 and 93.958 and 110.125 and 81.667 and 92.708 and 91.875 and 83.875
  Serum TG (Fig. 4b), individual mouse values: 109.75 and 118.917 and 137.25 and 189.75 and 144.75 and 162.25 and 110.583 and 122.25 and 108.917 and 100.583
  Serum TC (Fig. 4a), group mean (Mean 2): 91.58
  Mean (Fig. 4b): 130.5
[3]; 1 µmol
  Serum TC (Fig. 4a), Mean Diff. ND vs. treatment (Tukey): 87.84
  Serum TC (Fig. 4a), Mean Diff. Vehicle vs. treatment (Tukey): 158.5
[3]; ND minus 0.1 µmol group
  Mean Diff., ND vs. treated (Fig. 4b): 51.51
[3]; ND minus 1 µmol group
  Mean Diff., ND vs. treated (Fig. 4b): 16.27
[3]; Vehicle minus 0.1 µmol group
  Mean Diff., Vehicle vs. treated (Fig. 4b): 20.52
[3]; Vehicle minus 1 µmol group
  Mean Diff., Vehicle vs. treated (Fig. 4b): -14.72
[3]; [6]
  serum triglyceride level vs vehicle: no significant difference
[4]; 1µmol, one value per animal
  Dio1 expression in the liver, individual animal values: 3.359 and 3.177 and 2.594 and 3.891 and 4.465 and 3.761 and 2.009 and 5.092 and 4.047 and 3.355
  Ldlr expression in the liver, individual animal values: 0.07802 and 0.2909 and 0.1661 and 1.188 and 1.197 and 0.8436 and 2.271 and 0.5624 and 0.08829 and 0.1717
  Me1 expression in the liver, individual animal values: 1.618 and 1.709 and 1.627 and 3.524 and 2.735 and 3.173 and 4.935 and 5.075 and 3.984 and 2.564
  Pnpla2 expression in the liver, individual animal values: 0.3078 and 2.165 and 2.21 and 1.997 and 2.671 and 3.066 and 2.607 and 3.3336 and 0.6308 and 1.108
  Srebp1c expression in the liver, individual animal values: 0.06015 and 0.2255 and 0.1838 and 0.1704 and 0.1322 and 0.09864 and 0.3225 and 0.5342 and 0.08549 and 0.1455
  Thrsp expression in the liver, individual animal values: 1.539 and 1.364 and 0.6114 and 1.153 and 1.565 and 1.274 and 1.191 and 0.8905 and 1.332 and 1.012
[4]; [7]
  liver expression of Dio1 vs vehicle: significantly upregulated
  liver expression of Ldlr vs vehicle: not significantly different
  liver expression of Me1 vs vehicle: significantly upregulated
  liver expression of Srebp1c vs vehicle: significantly lower
  liver expression of Thrsp vs vehicle: no significant difference
[4]; [8]
  Pnpla2, Dunn's multiple comparisons test, Mean rank diff. (Vehicle vs. compound): -12.5
  Srebp1c, Dunn's multiple comparisons test, Mean rank diff. (Vehicle vs. compound): 17.87
[4]; liver gene expression, 1µmol dose group, Vehicle mean rank 8
  Pnpla2, Mean rank of treatment group (Mean rank 2): 20.5
[4]; liver gene expression, 1µmol dose group, Vehicle mean rank […]
  Srebp1c, Mean rank of treatment group (Mean rank 2): 15.8
[5]; 0.1 µmol dose group
  Body weight, 95.00% CI of diff. ND vs. treated: -15.17 to -6.458
  Body weight, Mean Diff. ND vs. treated: -10.81
  Body weight, 95.00% CI of diff. Vehicle vs. treated: -0.6376 to 7.800
  Body weight, Mean Diff. Vehicle vs. treated: 3.581
[5]; 1 µmol dose group
  Body weight, 95.00% CI of diff. ND vs. treated: -10.58 to -1.870
  Body weight, Mean Diff. ND vs. treated: -6.225
  Body weight, 95.00% CI of diff. Vehicle vs. treated: 3.950 to 12.39
  Body weight, Mean Diff. Vehicle vs. treated: 8.169
[5]; HFD mice, 0.1 µmol dose group
  Body weight, group mean (Fig. 3a): 39.33
  Body weight, individual mice (Fig. 3a): 37.99 and 36.19 and 32.32 and 43.27 and 39.51 and 44.21 and 39.97 and 39.21 and 40.58 and 40.07
[5]; HFD mice, 1 µmol dose group
  Body weight, group mean (Fig. 3a): 34.74
  Body weight, individual mice (Fig. 3a): 29.82 and 33.07 and 30.29 and 38.87 and 37.72 and 35.76 and 37.12 and 36.01 and 34.61 and 34.17
[5]; HFD mice, i.p. 0.1 µmol/kg day, 3 weeks
  body weight vs vehicle (in words): did not significantly reduce body weight
[5]; HFD mice, i.p. 1 µmol/kg day, 3 weeks
  decrease of body weight compared to vehicle: ~ 20%
